Patent publication US9877501B2, “Stevia composition” (PureCircle Sdn Bhd, priority 2011, dated 2018)
Read-outs that look alike come from different tables or passages of the source.

How the values were obtained:
[1] = cited from earlier work
[2] = carbonated beverages; Chang and Cook 1983; cited from earlier work
[3] = Sensory evaluation of zero-calorie carbonated beverage samples by 20 panelists; conditions: 0.050% stevia composition
Experimental: The sensory properties were evaluated by 20 panelists.

[4] = sensory evaluations, Crammer and Ikan 1986

| Compound | times sweeter than sucrose ([1]; Tanaka 1987, Phillips 1989) | times sweeter than sucrose [1, 4] | heat and pH stability [2] | further results |
| --- | --- | --- | --- | --- |
| C=C1C[C@@]23CC[C@H]4[C@@](C)(CCC[C@@]4(C)C(=O)O[C@@H]4O[C@H](CO)[C@@H](O)[C@H](O)[C@H]4O)[C@@H]2CC[C@]1(O[C@@H]1O[C@H](CO)[C@@H](O)[C@H](O)[C@H]1O[C@@H]1O[C@@H](C)[C@H](O)[C@@H](O)[C@H]1O)C3 [Dulcoside A] | 30 times | – | – | – |
| C=C1C[C@@]23CC[C@H]4[C@@](C)(CCC[C@@]4(C)C(=O)O[C@@H]4O[C@H](CO)[C@@H](O)[C@H](O)[C@H]4O)[C@@H]2CC[C@]1(O[C@@H]1O[C@H](CO)[C@@H](O)[C@H](O[C@@H]2O[C@H](CO)[C@@H](O)[C@H](O)[C@H]2O)[C@H]1O[C@@H]1O[C@H](CO)[C@@H](O)[C@H](O)[C@H]1O)C3 [Reb A, rebaudioside A] | – | 350-450 times | confirmed their heat and pH stability | sensory attributes among major steviol glycosides ([1]; Tanaka 1987, Phillips 1989): the least astringent, the least bitter, and the least persistent aftertaste; Number of panelists detected the attribute: Aftertaste [3]: 12; Number of panelists detected the attribute: Astringent taste [3]: 9; Number of panelists detected the attribute: Bitter taste [3]: 10 |
| C=C1C[C@@]23CC[C@H]4[C@@](C)(CCC[C@@]4(C)C(=O)O[C@@H]4O[C@H](CO)[C@@H](O)[C@H](O)[C@H]4O)[C@@H]2CC[C@]1(O[C@@H]1O[C@H](CO)[C@@H](O)[C@H](O)[C@H]1O[C@@H]1O[C@H](CO)[C@@H](O)[C@H](O)[C@H]1O)C3 [stevioside] | 110-270 times | – | confirmed their heat and pH stability | – |
| Rebaudioside B [reb B] | – | 300-350 times | – | – |
| rebaudioside C | 40-60 times | – | – | – |
